System: anti-TT antibodies
Design: species or system BALB/c mice
Conditions: mouse, in vivo

| SMILES | anti-TT Ig titres | anti-TT antibody titres after the third vaccination vs α-T treated mice | anti-TT antibody titres after the third vaccination, ranking of groups | antibody titres after the third immunisation as compared to first immunisation |
| --- | --- | --- | --- | --- |
| Cc1c(C)c2c(c(C)c1O)CC[C@@](C)(CCC[C@H](C)CCC[C@H](C)CCCC(C)C)O2 [α-T, α-tocopherol] | significantly (P<0.05) enhanced | – | – | – |
| CC(C)=CCC/C(C)=C/CC/C(C)=C/CC[C@]1(C)CCc2cc(O)cc(C)c2O1 [δ-T3, δ-tocotrienol] | significantly (P<0.05) enhanced | significantly (P<0.01) higher | highest | highly significant (P<0.01) antibody titres |
